Data on 24 molecules can be found in US11912693B2, “Compounds for modulating S1P1 activity and methods of using the same” (TREVENA, INC., priority 2017, dated 2024).

For test [1], the target named is T1, human sphingosine-1-phosphate receptor 1 (S1P1) (Homo sapiens (Human), UniProt P21453). The test can be described thus: Inhibition of cAMP production (HTRF cAMP HiRange), S1P1 CHO-K1 cells. The format is cell-based. The settings on record: for Emax: CHO-K1, efficacy (SPAN) normalized to fingolimod, read-out: hS1P1 cAMP SPAN; for hS1P1 cAMP pEC50: inhibition of cAMP production, S1P1 CHO-K1 cells. The essentials:
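CHO-K1 cells stably co-expressing human S1P1 (C-terminal Prolink tag) and EA-β-arrestin2 were grown in AssayComplete Media 6 at 37° C. and 5% CO2, plated, and incubated overnight. Agonist-driven inhibition of intracellular cAMP was read by TR-FRET with the HTRF cAMP HiRange kit on a PheraStar reader. Potency is pEC50, and efficacy (SPAN) is normalized to fingolimod.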
Target sequence in this assay (P21453 whole entry, looked up): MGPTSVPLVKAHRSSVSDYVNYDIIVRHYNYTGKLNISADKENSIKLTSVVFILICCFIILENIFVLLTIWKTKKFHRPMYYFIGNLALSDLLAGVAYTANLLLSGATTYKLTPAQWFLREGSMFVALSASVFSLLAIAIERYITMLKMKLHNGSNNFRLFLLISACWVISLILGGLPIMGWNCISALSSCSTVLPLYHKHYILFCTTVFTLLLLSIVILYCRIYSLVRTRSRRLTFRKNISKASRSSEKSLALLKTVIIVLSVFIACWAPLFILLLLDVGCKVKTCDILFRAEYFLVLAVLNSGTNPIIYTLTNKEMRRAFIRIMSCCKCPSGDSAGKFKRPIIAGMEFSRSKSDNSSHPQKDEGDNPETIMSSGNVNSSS

For test [2], the target named is T1, human sphingosine-1-phosphate receptor 1 (S1P1). The test can be described thus: β-Arrestin2 recruitment assay (PathHunter), S1P1 CHO-K1 cells. The format is cell-based. Conditions: for Emax: CHO-K1, efficacy (SPAN) normalized to fingolimod, read-out: hS1P1 B-arrestin2 SPAN; for hS1P1 B-arrestin2 pEC50: β-arrestin2 recruitment, S1P1 CHO-K1 cells. An outline of the steps: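 Enzyme-fragment complementation read-out: agonist-driven β-arrestin2 binding to ProLink-tagged human S1P1 in stable CHO-K1 cells restores β-galactosidase, measured 1 h at room temperature after a 60 min 37° C. compound incubation. Potency as pEC50, efficacy relative to fingolimod (SPAN).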
Target sequence in this assay (P21453 whole entry, looked up): as above
Target sequence in this assay (P32121 whole entry partner, looked up): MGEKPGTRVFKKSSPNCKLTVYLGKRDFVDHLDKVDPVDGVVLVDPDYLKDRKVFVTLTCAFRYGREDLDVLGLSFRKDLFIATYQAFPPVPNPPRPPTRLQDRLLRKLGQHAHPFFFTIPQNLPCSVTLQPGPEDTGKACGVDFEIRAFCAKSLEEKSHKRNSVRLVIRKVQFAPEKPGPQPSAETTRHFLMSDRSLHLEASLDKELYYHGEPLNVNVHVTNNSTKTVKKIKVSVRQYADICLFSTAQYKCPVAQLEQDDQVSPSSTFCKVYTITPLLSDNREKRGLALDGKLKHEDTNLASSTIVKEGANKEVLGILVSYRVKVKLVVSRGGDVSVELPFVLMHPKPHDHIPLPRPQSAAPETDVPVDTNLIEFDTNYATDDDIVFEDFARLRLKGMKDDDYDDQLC

`CC(C)n1nnc2cc(-c3ncc(-c4cccc(F)c4)s3)ccc21` [Compound 110, 5-(3-fluorophenyl)-2-(1-isopropyl-1H-benzo[d][1,2,3]triazol-5-yl)thiazole]: in test [1], the Emax was less than 75% and the “hS1P1 cAMP pEC50” value is on record as less than 6.5. For the same molecule, in test [2], the Emax was less than 75% and the “hS1P1 B-arrestin2 pEC50” value is less than 5.
On to `CCC1(CC)CC(=O)c2cc(-c3nc(-c4ccccn4)no3)ccc2O1` [Compound 111, 2,2-diethyl-6-[3-(2-pyridyl)-1,2,4-oxadiazol-5-yl]chroman-4-one], for which, in test [1], the Emax was more than 75% and the “hS1P1 cAMP pEC50” value is on record as less than 6.5. Further, in test [2], the Emax was more than 75% and the “hS1P1 B-arrestin2 pEC50” value was less than 5.
With `CC(C)n1nnc2cc(-c3nsc(-c4ccccc4O)n3)ccc21` [Compound 112, 2-{3-[1-(propan-2-yl)-1H-1,2,3-benzotriazol-5-yl]-1,2,4-thiadiazol-5-yl}phenol], the “hS1P1 cAMP pEC50” value in test [1] is on record as more than 6.5. Further, the “hS1P1 B-arrestin2 pEC50” value in test [2] is listed as more than 5.
Take `c1ccc(-c2noc(-c3ccc4[nH]nnc4c3)n2)cc1` [Compound 113, 5-(3-phenyl-1,2,4-oxadiazol-5-yl)-1H-1,2,3-benzotriazole]: the “hS1P1 cAMP pEC50” value in test [1] is on record as less than 6.5. Moreover, in test [2], the “hS1P1 B-arrestin2 pEC50” value is given as less than 5.
Consider `FC(F)(F)c1cc(Br)ccc1-c1noc(-c2ccc3c(c2)nnn3C2CCCC2)n1` [Compound 114, 5-{3-[4-bromo-2-(trifluoromethyl)phenyl]-1,2,4-oxadiazol-5-yl}-1-cyclopentyl-1H-1,2,3-benzotriazole], for which, in test [1], the Emax is less than 75% and the “hS1P1 cAMP pEC50” value was less than 6.5. In test [2], the Emax is less than 75% and the “hS1P1 B-arrestin2 pEC50” value was less than 5.
With `Brc1ccccc1-c1nc(-c2ccc3c(c2)nnn3C2CCCCC2)no1` [Compound 115, 5-(2-bromophenyl)-3-(1-cyclohexyl-1H-benzo[d][1,2,3]triazol-5-yl)-1,2,4-oxadiazole], in test [1], the Emax is more than 75% and the “hS1P1 cAMP pEC50” value is recorded as more than 6.5. In addition, in test [2], the Emax was more than 75% and the “hS1P1 B-arrestin2 pEC50” value is more than 5.
In the case of `COc1cc(-c2nc(-c3ccc4c(c3)nnn4C(C)C)no2)ccn1` [Compound 116, 3-(1-isopropyl-1H-benzo[d][1,2,3]triazol-5-yl)-5-(2-methoxypyridin-4-yl)-1,2,4-oxadiazole], in test [1], the Emax was less than 75% and the “hS1P1 cAMP pEC50” value was less than 6.5. Besides, in test [2], the Emax was less than 75% and the “hS1P1 B-arrestin2 pEC50” value is given as less than 5.
For `Cc1ccc(-c2noc(-c3ccc4c(c3)nnn4C3CCCCC3)n2)cc1` [Compound 117, 1-cyclohexyl-5-[3-(4-methylphenyl)-1,2,4-oxadiazol-5-yl]-1H-1,2,3-benzotriazole], in test [1], the Emax was less than 75% and the “hS1P1 cAMP pEC50” value is reported as less than 6.5. Also, in test [2], the Emax was less than 75% and the “hS1P1 B-arrestin2 pEC50” value is on record as less than 5.
As for `FC(F)(F)c1cccc(-c2noc(-c3ccc4c(c3)nnn4C3CCCC3)n2)c1` [Compound 118, 1-cyclopentyl-5-{3-[3-(trifluoromethyl)phenyl]-1,2,4-oxadiazol-5-yl}-1H-1,2,3-benzotriazole], in test [1], the “hS1P1 cAMP pEC50” value is listed as less than 6.5. In addition, the “hS1P1 B-arrestin2 pEC50” value in test [2] is on record as less than 5.
Consider `Cc1ccc(-c2nc(-c3ccc4c(c3)nnn4C(C)C)no2)cn1` [Compound 119, 3-(1-isopropyl-1H-benzo[d][1,2,3]triazol-5-yl)-5-(6-methylpyridin-3-yl)-1,2,4-oxadiazole], for which, in test [1], the Emax was less than 75% and the “hS1P1 cAMP pEC50” value was less than 6.5. For the same molecule, in test [2], the Emax was less than 75% and the “hS1P1 B-arrestin2 pEC50” value is less than 5.
As for `COc1ccccc1-c1nc(-c2ccc3c(c2)nnn3C2CCCC2)no1` [Compound 120, 3-(1-cyclopentyl-1H-benzo[d][1,2,3]triazol-5-yl)-5-(2-methoxyphenyl)-1,2,4-oxadiazole], in test [1], the Emax was more than 75% and the “hS1P1 cAMP pEC50” value is recorded as more than 6.5. Further, in test [2], the Emax is more than 75% and the “hS1P1 B-arrestin2 pEC50” value was more than 5.
As for `CC(C)Oc1ccc(-c2nc(-c3ccc4c(c3)nnn4C3CCCC3)no2)cc1` [Compound 121, 3-(1-cyclopentyl-1H-benzo[d][1,2,3]triazol-5-yl)-5-(4-isopropoxyphenyl)-1,2,4-oxadiazole], in test [1], the Emax is less than 75% and the “hS1P1 cAMP pEC50” value is given as less than 6.5. Moreover, in test [2], the Emax was less than 75% and the “hS1P1 B-arrestin2 pEC50” value was less than 5.
Consider `CC(C)CCn1nnc2cc(-c3nc(-c4ccc(C(F)(F)F)c(F)c4)no3)ccc21` [Compound 122, 5-{3-[3-fluoro-4-(trifluoromethyl)phenyl]-1,2,4-oxadiazol-5-yl}-1-(3-methylbutyl)-1H-1,2,3-benzotriazole], for which, in test [1], the Emax was less than 75% and the “hS1P1 cAMP pEC50” value was less than 6.5. In test [2], the Emax is less than 75% and the “hS1P1 B-arrestin2 pEC50” value is recorded as less than 5.
For `COc1cccc(-c2noc(-c3ccc4c(c3)nnn4C3CCCC3)n2)n1` [Compound 124, 1-cyclopentyl-5-[3-(6-methoxypyridin-2-yl)-1,2,4-oxadiazol-5-yl]-1H-1,2,3-benzotriazole], in test [1], the Emax is less than 75% and the “hS1P1 cAMP pEC50” value is on record as less than 6.5. In test [2], the Emax is less than 75% and the “hS1P1 B-arrestin2 pEC50” value is on record as less than 5.
As to `CC(C)n1nnc2cc(-c3noc(C4CCC(F)(F)CC4)n3)ccc21` [Compound 125, 5-[5-(4,4-difluorocyclohexyl)-1,2,4-oxadiazol-3-yl]-1-(propan-2-yl)-1H-1,2,3-benzotriazole], in test [1], the Emax is less than 75% and the “hS1P1 cAMP pEC50” value is listed as less than 6.5. Also, in test [2], the Emax is less than 75% and the “hS1P1 B-arrestin2 pEC50” value is given as less than 5.
As to `Cc1cc(C)cc(Cc2noc(-c3ccc4c(c3)nnn4C(C)C)n2)c1` [Compound 126, 5-{3-[(3,5-dimethylphenyl)methyl]-1,2,4-oxadiazol-5-yl}-1-(propan-2-yl)-1H-1,2,3-benzotriazole], in test [1], the Emax is less than 75% and the “hS1P1 cAMP pEC50” value is given as less than 6.5. In test [2], the Emax is less than 75% and the “hS1P1 B-arrestin2 pEC50” value is recorded as less than 5.
In the case of `CC(C)n1nnc2cc(-c3noc(C4CCCCC4)n3)ccc21` [Compound 127, 5-(5-cyclohexyl-1,2,4-oxadiazol-3-yl)-1-(propan-2-yl)-1H-1,2,3-benzotriazole], in test [1], the Emax was less than 75% and the “hS1P1 cAMP pEC50” value is listed as less than 6.5. Also, in test [2], the Emax is less than 75% and the “hS1P1 B-arrestin2 pEC50” value is on record as less than 5.
As for `CC(C)n1nnc2cc(-c3nc(-c4ccc5nncn5c4)no3)ccc21` [Compound 128, 1-(propan-2-yl)-5-(3-{[1,2,4]triazolo[4,3-a]pyridin-6-yl}-1,2,4-oxadiazol-5-yl)-1H-1,2,3-benzotriazole], in test [1], the Emax was less than 75% and the “hS1P1 cAMP pEC50” value is on record as less than 6.5. Moreover, in test [2], the Emax is less than 75% and the “hS1P1 B-arrestin2 pEC50” value is on record as less than 5.
`COc1ccc(-c2noc(-c3ccc4c(c3)nnn4C(C)C)n2)c2ccccc12` [Compound 129, 5-[3-(4-methoxynaphthalen-1-yl)-1,2,4-oxadiazol-5-yl]-1-(propan-2-yl)-1H-1,2,3-benzotriazole]: in test [1], the Emax is less than 75% and the “hS1P1 cAMP pEC50” value is less than 6.5. Further, in test [2], the Emax is less than 75% and the “hS1P1 B-arrestin2 pEC50” value is less than 5.
Consider `COc1cccc(-c2nc(-c3ccc4c(c3)nnn4C3CCCC3)no2)c1` [Compound 130, 3-(1-cyclopentyl-1H-benzo[d][1,2,3]triazol-5-yl)-5-(3-methoxyphenyl)-1,2,4-oxadiazole], for which, in test [1], the Emax was less than 75% and the “hS1P1 cAMP pEC50” value is given as less than 6.5. Further, in test [2], the Emax is less than 75% and the “hS1P1 B-arrestin2 pEC50” value is less than 5.
Consider `CC(C)n1nnc2cc(-c3noc(-c4ccc(COc5ccccc5)cc4)n3)ccc21` [Compound 131, 3-(1-isopropyl-1H-benzo[d][1,2,3]triazol-5-yl)-5-(4-(phenoxymethyl)phenyl)-1,2,4-oxadiazole], for which, in test [1], the Emax was less than 75% and the “hS1P1 cAMP pEC50” value is less than 6.5. Besides, in test [2], the Emax was less than 75% and the “hS1P1 B-arrestin2 pEC50” value is reported as less than 5.
Turning to `CC(C)n1nnc2cc(-c3nc(-c4ccccc4OC(F)(F)F)no3)ccc21` [Compound 132, 5-(1-isopropyl-1H-benzo[d][1,2,3]triazol-5-yl)-3-(2-(trifluoromethoxy)phenyl)-1,2,4-oxadiazole], in test [1], the Emax is more than 75% and the “hS1P1 cAMP pEC50” value is recorded as more than 6.5. Moreover, in test [2], the Emax was more than 75% and the “hS1P1 B-arrestin2 pEC50” value was more than 5.
Turning to `Cc1ncc(-c2nc(-c3ccc4c(c3)nnn4C(C)C)no2)nc1C` [Compound 133, 5-(5,6-dimethylpyrazin-2-yl)-3-(1-isopropyl-1H-benzo[d][1,2,3]triazol-5-yl)-1,2,4-oxadiazole], in test [1], the Emax is less than 75% and the “hS1P1 cAMP pEC50” value is less than 6.5. Moreover, in test [2], the Emax is less than 75% and the “hS1P1 B-arrestin2 pEC50” value is less than 5.
On to `O=C(O)CCn1nnc2cc(-c3noc(-c4ccccc4Br)n3)ccc21` [Compound 134, 3-(5-(5-(2-bromophenyl)-1,2,4-oxadiazol-3-yl)-1H-benzo[d][1,2,3]triazol-1-yl)propanoic acid], for which, in test [1], the Emax was less than 75% and the “hS1P1 cAMP pEC50” value is listed as less than 6.5. Moreover, in test [2], the Emax was less than 75% and the “hS1P1 B-arrestin2 pEC50” value is recorded as less than 5.
